Reference: publication PMC8119466, “A screen of FDA-approved drugs identifies inhibitors of protein tyrosine phosphatase 4A3 (PTP4A3 or PRL-3)” (Scientific Reports, 2021)
Where a name gives a salt, the structure may show the parent alone. Read-outs that look alike come from different tables or passages of the source.

Columns and labels:
Type in all cases: biochemical
[1] = biological target: T1, recombinant PRL-1 (Homo sapiens, UniProt Q93096); assay: In vitro phosphatase assay (DiFMUP hydrolysis), PRL-1; also: test concentration or dose not given here
T1 construct: 6xHis (N, cleaved yes); made in house; host or cells: E. coli One Shot BL21 Star
T1 sequence (Q93096 1-173): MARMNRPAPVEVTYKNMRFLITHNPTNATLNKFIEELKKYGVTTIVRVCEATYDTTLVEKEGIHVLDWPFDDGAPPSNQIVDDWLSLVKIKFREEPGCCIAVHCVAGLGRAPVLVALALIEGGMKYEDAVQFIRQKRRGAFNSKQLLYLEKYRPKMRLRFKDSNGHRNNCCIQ

[2] = biological target: T2, recombinant PRL-3 (Homo sapiens, UniProt O75365); assay: In vitro phosphatase assay (DiFMUP hydrolysis), PRL-3; also: test concentration or dose not given here
T2 construct: 6xHis (N, cleaved yes); made in house; host or cells: E. coli One Shot BL21 Star

[3] = biological target: T3, recombinant PRL-2 (Homo sapiens, UniProt Q12974); assay: In vitro phosphatase assay (DiFMUP hydrolysis), PRL-2;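 also: PRL-2 activity read as DiFMUP hydrolysis after 20 min at room temperature with drug, enzyme first pre-reduced at 4 °C for 20 min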
T3 construct: 6xHis (N, cleaved yes); made in house; host or cells: E. coli One Shot BL21 Star
T3 sequence (Q12974 1-167): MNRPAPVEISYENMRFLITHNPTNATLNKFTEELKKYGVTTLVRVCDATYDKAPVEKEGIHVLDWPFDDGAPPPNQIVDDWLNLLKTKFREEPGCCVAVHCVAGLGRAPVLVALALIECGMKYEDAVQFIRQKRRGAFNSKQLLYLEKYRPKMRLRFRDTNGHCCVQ

[4] = FDA-approved drug screen, compared to DMSO
[5] = FDA-approved drug screen, activity compared to DMSO

T2 sequence (O75365 whole entry): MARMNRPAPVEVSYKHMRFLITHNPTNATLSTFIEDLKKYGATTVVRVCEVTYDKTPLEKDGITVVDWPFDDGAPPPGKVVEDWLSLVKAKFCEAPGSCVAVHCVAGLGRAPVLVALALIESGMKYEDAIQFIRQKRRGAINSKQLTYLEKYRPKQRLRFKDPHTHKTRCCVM

Row | Compound | % Phosphatase Activity (compared to DMSO) PRL-1 [1, 4] [%] | % Phosphatase Activity (compared to DMSO) PRL-3 [2, 4] [%] | % Phosphatase Activity (compared to DMSO) PRL-2 [3, 4] [%] | other results
1 | O.S=c1[nH]cnc2nc[nH]c12 [6-Mercaptopurine (6-MP) Monohydrate] | 95 | 85 | 108 | –
2 | COc1ccc2[nH]cc(CCNC(C)=O)c2c1 [Melatonin] | 125 | 81 | 108 | –
3 | CCc1cc(/C(C)=N/OCc2ccc(C3CCCCC3)c(C(F)(F)F)c2)ccc1CN1CC(C(=O)O)C1 [BAF312 (Siponimod)] | 99 | 101 | 87 | –
4 | COc1cc2c(cc1OC)C1CC(=O)C(CC(C)C)CN1CC2 (stereo not drawn) [Tetrabenazine (Xenazine)] | – | – | – | % Phosphatase Activity (compared to DMSO) PRL-1 [1, 5]: 81%; % Phosphatase Activity (compared to DMSO) PRL-3 [2, 5]: 84%; % Phosphatase Activity (compared to DMSO) PRL-2 [3, 5]: 89%
5 | COc1ccccc1OCC(O)CN1CCN(CC(=O)Nc2c(C)cccc2C)CC1 (stereo not drawn) [Ranolazine] | 90 | 118 | 99 | –
6 | CCCNC(C)C(=O)Nc1ccccc1C (stereo not drawn) [Prilocaine] | 97 | 78 | 107 | –
7 | O=S(=O)(O)CCS [Mesna] | 95 | 102 | 93 | –
8 | O=C(O)c1ccccc1Nc1cccc(C(F)(F)F)c1 [Flufenamic acid] | 81 | 69 | 85 | –
9 | Cc1ccc(Nc2nccc(N(C)c3ccc4c(C)n(C)nc4c3)n2)cc1S(N)(=O)=O [Pazopanib] | 97 | 89 | 100 | –
10 | CCN(CC)CC#CCOC(=O)C(O)(c1ccccc1)C1CCCCC1 (stereo not drawn) [Oxybutynin chloride] | 88 | 75 | 85 | –
11 | Cn1c(=O)c2c(ncn2CC(O)CO)n(C)c1=O (stereo not drawn) [Dyphylline] | 100 | 75 | 103 | –
12 | Cc1cc(C2CCCCC2)n(O)c(=O)c1.NCCO [Ciclopirox ethanolamine] | 106 | 83 | 109 | –
13 | CNC(=O)[C@H](Cc1c[nH]c2ccccc12)NC(=O)[C@@H](CC(=O)NO)CC(C)C [Ilomastat (GM6001, Galardin)] | 94 | 91 | 80 | –
14 | C[C@H](Oc1ccc(S(C)(=O)=O)cc1C(=O)N1CCN(c2ncc(C(F)(F)F)cc2F)CC1)C(F)(F)F [Bitopertin] | 93 | 82 | 73 | –
15 | CC(C)(CO)C(O)C(=O)NCCCO (racemic) [DL-Panthenol] | 109 | 82 | 91 | –
16 | CC#C[C@]1(O)CC[C@H]2[C@@H]3CCC4=CC(=O)CCC4=C3[C@@H](c3ccc(N(C)C)cc3)C[C@@]21C [Mifepristone] | 96 | 95 | 135 | –
17 | CN(C)CCN(Cc1ccccc1)c1ccccn1 [Tripelennamine HCl] | – | – | – | % Phosphatase Activity (compared to DMSO) PRL-1 [1, 5]: 91%; % Phosphatase Activity (compared to DMSO) PRL-3 [2, 5]: 112%; % Phosphatase Activity (compared to DMSO) PRL-2 [3, 5]: 119%

Row | Compound | % Phosphatase Activity (compared to DMSO) PRL-1 [1, 4] [%] | % Phosphatase Activity (compared to DMSO) PRL-3 [2, 4] [%] | % Phosphatase Activity (compared to DMSO) PRL-2 [3, 4] [%] | other results
18 | C=C1CC[C@H](O)C/C1=C/C=C1\CCC[C@]2(C)[C@@H]([C@H](C)CCCC(C)C)CC[C@@H]12 [Vitamin D3] | – | – | – | % Phosphatase Activity (compared to DMSO) PRL-1 [1, 5]: 85%; % Phosphatase Activity (compared to DMSO) PRL-3 [2, 5]: 63%; % Phosphatase Activity (compared to DMSO) PRL-2 [3, 5]: 95%
19 | CCOC(=O)C1=C[C@]2(CC)CCCN3CCc4c(n1c1ccccc41)[C@@H]32 [Vinpocetine] | – | – | – | % Phosphatase Activity (compared to DMSO) PRL-1 [1, 5]: 95%; % Phosphatase Activity (compared to DMSO) PRL-3 [2, 5]: 79%; % Phosphatase Activity (compared to DMSO) PRL-2 [3, 5]: 114%
20 | CN(C)c1cc(NC(=O)CNC(C)(C)C)c(O)c2c1C[C@H]1C[C@H]3[C@H](N(C)C)C(O)=C(C(N)=O)C(=O)[C@@]3(O)C(O)=C1C2=O [Tigecycline] | – | – | – | % Phosphatase Activity (compared to DMSO) PRL-1 [1, 5]: 36%; % Phosphatase Activity (compared to DMSO) PRL-3 [2, 5]: 24%; % Phosphatase Activity (compared to DMSO) PRL-2 [3, 5]: 45%
21 | COC(=O)Nc1nc2cc(C(=O)c3ccc(F)cc3)ccc2[nH]1 [Flubendazole] | 91 | 92 | 103 | –
22 | Cn1cnc2c(F)c(Nc3ccc(Br)cc3F)c(C(=O)NOCCO)cc21 [MEK162 (ARRY-162, ARRY-438162)] | 85 | 91 | 72 | –
23 | OCCOCCN1CCN(C2=Nc3ccccc3Sc3ccccc32)CC1 [Quetiapine Fumarate] | – | – | – | % Phosphatase Activity (compared to DMSO) PRL-1 [1]: 80%; % Phosphatase Activity (compared to DMSO) PRL-3 [2]: 93%; % Phosphatase Activity (compared to DMSO) PRL-2 [3]: 87%
24 | CC(=O)O[C@]1(C(C)=O)CC[C@H]2[C@@H]3C[C@H](C)C4=CC(=O)CC[C@]4(C)[C@H]3CC[C@@]21C [Medroxyprogesterone acetate] | 89 | 85 | 89 | –
25 | CCn1cc(C(=O)O)c(=O)c2cc(F)c(N3CCNCC3)cc21 [Norfloxacin] | 131 | 111 | 130 | –
26 | O=C(N[C@H](CO)[C@H](O)c1ccc([N+](=O)[O-])cc1)C(Cl)Cl [Chloramphenicol] | 96 | 83 | 80 | –
27 | CC1(C)CCC(c2ccc(Cl)cc2)=C(CN2CCN(c3ccc(C(=O)NS(=O)(=O)c4ccc(N[C@H](CCN5CCOCC5)CSc5ccccc5)c(S(=O)(=O)C(F)(F)F)c4)cc3)CC2)C1 [ABT-263 (Navitoclax)] | 90 | 81 | 75 | –
28 | CCN1CCN(C(=O)N[C@@H](C(=O)N[C@@H]2C(=O)N3[C@@H]2SC(C)(C)[C@@H]3C(=O)O)c2ccccc2)C(=O)C1=O [Piperacillin Sodium] | 86 | 73 | 91 | –
29 | CC(C)Cc1ccc(C(C)C(=O)O)cc1 (stereo not drawn) [Ibuprofen] | 99 | 82 | 87 | –
30 | CC[C@H](C)C(=O)O[C@H]1C[C@H](O)C=C2C=C[C@H](C)[C@H](CC[C@@H](O)C[C@@H](O)CC(=O)O)[C@H]21 [Pravastatin sodium] | 93 | 93 | 113 | –
31 | CCN(CC)C(=S)SSC(=S)N(CC)CC [Disulfiram] | 103 | 78 | 100 | –
32 | CCN1CC(CCN2CCOCC2)C(c2ccccc2)(c2ccccc2)C1=O.Cl (stereo not drawn) [Doxapram HCl] | 113 | 92 | 98 | –
33 | COc1ccccc1Oc1c(NS(=O)(=O)c2ccc(C(C)(C)C)cc2)nc(-c2ncccn2)nc1OCCO [Bosentan Hydrate] | 87 | 93 | 96 | –
34 | Cn1nnc2c(C(N)=O)ncn2c1=O [Temozolomide] | – | – | – | % Phosphatase Activity (compared to DMSO) PRL-1 [1, 5]: 87%; % Phosphatase Activity (compared to DMSO) PRL-3 [2, 5]: 65%; % Phosphatase Activity (compared to DMSO) PRL-2 [3, 5]: 94%
